Where only a bound is given, the exact number is not on record here.

The values below come from patent US20260184663A1, “INDENE COMPOUNDS, PHARMACEUTICAL COMPOSITIONS THEREOF, AND THEIR THERAPEUTIC APPLICATIONS” (NucMito Pharmaceuticals co. Ltd., priority 2022, published 2026).

Common to all, as to format: cell-based
Assay [1] relates to alpha-smooth muscle actin (α-SMA). Put plainly: Inhibition of TGF-β induced expression of alpha-smooth muscle actin (α-SMA) in CFSC cells (western blot). Conditions: compound at 10 μM, TGF-β (10 ng/mL), 24 hours, band intensity vs TGF-β only. A digest of the protocol:
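CFSC hepatic stellate cells in serum-free DMEM treated 24 h at 37 °C with compound at 10 μM plus TGF-β (10 ng/mL). α-SMA measured by Western blot with β-actin, ECL detection, densitometry. Percent inhibition is decrease in band intensity versus TGF-β-only cells.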
Background: Immunoblotting shows a protein as a band on a membrane.

The test system of assay [2] is MDA-MB-231 (breast cancer). Put plainly: Antiproliferative activity (CCK-8 cell viability), MDA-MB-231. Conditions: Homo sapiens, 72 h, read-out: Antiproliferative activity in cancerous cells, MDA-MB-231 (inhibition of cell growth); for inhibition at 3.3 µM: Compound concentration: 3.3 μM; for inhibition at 10 µM: Compound concentration: 10 μM. Put shortly: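 In this CCK-8 viability assay, MDA-MB-231 cells maintained in Dulbecco's modified Eagle's medium containing 10% fetal bovine serum were placed in 96-well plates (2,000-5,000 cells/well) and treated with compound for 72 h at 37° C. A 4 h incubation with 10 μL CCK-8 followed, plates were read at 450 nm, and viability was expressed against DMSO vehicle wells across replicates.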

For the next assay, the system named is HepG2 (liver cancer). As to the kind of experiment: Antiproliferative activity (CCK-8 cell viability), HepG2. As to conditions: Homo sapiens, 72 h, read-out: Antiproliferative activity in cancerous cells, HepG2 (inhibition of cell growth); for inhibition at 3.3 µM: Compound concentration: 3.3 μM; for inhibition at 10 µM: Compound concentration: 10 μM. A digest of the protocol:
(§1)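 Cells were seeded at 2,000-5,000/well (HeLa in MEM, HepG2 and SW480 in DMEM, A549 in F-12K, all with 10% FBS) and treated with compound at 3.3, 10 or 30 μM for 72 h at 37° C. CCK-8 was added for 4 h, absorbance was read at 450 nm, and viability was expressed relative to DMSO-treated wells.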

Another assay concerns SW480 (colon cancer). Put plainly: Antiproliferative activity (CCK-8 cell viability), SW480. As to conditions: Homo sapiens, 72 h, read-out: Antiproliferative activity in cancerous cells, SW480 (inhibition of cell growth); for inhibition at 3.3 µM: Compound concentration: 3.3 μM; for inhibition at 10 µM: Compound concentration: 10 μM. A digest of the protocol:
as §1

For assay [3], the system named is B16F10 (malignant melanoma). Put plainly: Antiproliferative activity (CCK-8 cell viability), B16F10. Conditions: Mus musculus, 72 h, read-out: Antiproliferative activity in cancerous cells, B16F10 (inhibition of cell growth); for inhibition at 3.3 µM: B16-F10, Compound concentration: 3.3 μM; for inhibition at 10 µM: B16-F10, Compound concentration: 10 μM. Put shortly:
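Attached B16F10 cells in 96-well plates were incubated with compound at 37° C for 72 h, followed by 10 μL CCK-8 reagent per well and a further 4 h incubation. A multi-well plate reader measured absorbance at 450 nm. Percent viability across replicates was calculated against DMSO vehicle-treated cells.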

In assay [4] the test system is A431 (epidermoid carcinoma). Put plainly: Antiproliferative activity (CCK-8 cell viability), A431. Conditions: Homo sapiens, 72 h, read-out: Antiproliferative activity in cancerous cells, A431 (inhibition of cell growth); for inhibition at 3.3 µM: A-431, Compound concentration: 3.3 μM; for inhibition at 10 µM: A-431, Compound concentration: 10 μM. Put shortly:
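Cell viability of compound-treated A431 cells was measured with a Cell Counting Kit-8. Each well received 10 μL of CCK-8 after 72 h of compound exposure, followed by 4 h incubation at 37° C. and a 450 nm plate-reader measurement. Percent viability was calculated relative to DMSO controls across replicates.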

Assay [5] has as its system A549 (lung adenocarcinoma). As to the kind of experiment: Antiproliferative activity (CCK-8 cell viability), A549. As to conditions: Homo sapiens, 72 h; for inhibition at 3.3 µM: Compound concentration: 3.3 μM; for inhibition at 3.3 µM / inhibition at 10 µM: read-out: Antiproliferative activity in cancerous cells, A549 (inhibition of cell growth); for inhibition at 10 µM: Compound concentration: 10 μM. A digest of the protocol: as §1

The next assay concerns HeLa (cervical cancer). Put plainly: Antiproliferative activity (CCK-8 cell viability), HeLa. As to conditions: Homo sapiens, 72 h, read-out: Antiproliferative activity in cancerous cells, HELA (inhibition of cell growth); for inhibition at 3.3 µM: Compound concentration: 3.3 μM; for inhibition at 10 µM: Compound concentration: 10 μM. Put shortly: as §1

`CCc1ccc2c(c1)C(CC(=O)O)=C(C)/C2=C/c1cccc(Oc2ccccc2)c1` [C18, (Z)-2-(5-Ethyl-2-methyl-1-(3-phenoxybenzylidene)-1H-inden-3-yl)acetic acid]: the inhibition at 10 µM in assay [1] was less than 30%; in assay [2], not below 50%; in the assay with HepG2 (liver cancer), not below 50%; in the assay on SW480 (colon cancer) it was not below 50%; in assay [3], not below 50%; in assay [4], not below 50%. Also, the inhibition at 10 µM is not below 50% in assay [5] and 30 to 50% in the assay on HeLa (cervical cancer). The inhibition at 3.3 µM in assay [2] is 30 to 50%; in the assay with HepG2 (liver cancer) it was 30 to 50%; with SW480 (colon cancer), not below 50%; in assay [3], not below 50%; in assay [4] it was not below 50%; in assay [5], 30 to 50%. For the same molecule, the inhibition at 3.3 µM in the assay with HeLa (cervical cancer) was less than 30%.
As to `CCC1=C(CC(=O)O)c2cc(F)ccc2/C1=C\c1cccc(Oc2ccccc2)c1` [C19, (Z)-2-(2-Ethyl-5-fluoro-1-(3-phenoxybenzylidene)-1H-inden-3-yl)acetic acid], the inhibition at 10 µM in assay [1] was more than 80%; in assay [2], not below 50%; in the assay on HepG2 (liver cancer), 30 to 50%; in the assay with SW480 (colon cancer), less than 30%; in assay [3], not below 50%; in assay [4] it was not below 50%. In addition, the inhibition at 10 µM (in assay [5]; in the assay on HeLa (cervical cancer)) was not below 50% throughout. Further, the inhibition at 3.3 µM in assay [2] was not below 50%; in the assay on HepG2 (liver cancer), less than 30%; in the assay on SW480 (colon cancer) it was less than 30%; in assay [3] it was less than 30%; in assay [4], less than 30%; in assay [5], 30 to 50%. For the same molecule, the inhibition at 3.3 µM with HeLa (cervical cancer) lay within 30 to 50%.
`O=C(O)CC1=C(CC2CCCC2)/C(=C/c2cccc(Oc3ccccc3)c2)c2ccc(F)cc21` [C20, (Z)-2-(2-(Cyclopentylmethyl)-5-fluoro-1-(3-phenoxybenzylidene)-1H-inden-3-yl)acetic acid]: the inhibition at 10 µM in assay [1] was more than 80%; in assay [2] it was not below 50%; in the assay on HepG2 (liver cancer), less than 30%; in the assay on SW480 (colon cancer), not below 50%; in assay [3] it was not below 50%; in assay [4], not below 50%. For the same molecule, the inhibition at 10 µM (in assay [5]; in the assay with HeLa (cervical cancer)) was not below 50% each time. The inhibition at 3.3 µM is 30 to 50% in assay [2]; less than 30% with HepG2 (liver cancer); not below 50% with SW480 (colon cancer); not below 50% in assay [3]; not below 50% in assay [4]; 30 to 50% in assay [5]. In addition, in the assay on HeLa (cervical cancer), the inhibition at 3.3 µM lay in the range of 30 to 50%.
On to `CC1=C(CC(=O)O)c2c(F)cccc2/C1=C\c1cccc(Oc2ccccc2)c1` [C21, (Z)-2-(4-Fluoro-2-methyl-1-(3-phenoxybenzylidene)-1H-inden-3-yl)acetic acid], for which the inhibition at 10 µM in assay [1] is less than 30%; in assay [2], not below 50%; with HepG2 (liver cancer) it was 30 to 50%; in the assay with SW480 (colon cancer) it was less than 30%; in assay [3], less than 30%; in assay [4], not below 50%. For the same molecule, the inhibition at 10 µM in assay [5] was 30 to 50%; in the assay with HeLa (cervical cancer) it was not below 50%. The inhibition at 3.3 µM in assay [2] was not below 50%; in the assay with HepG2 (liver cancer) it was less than 30%; in the assay with SW480 (colon cancer), less than 30%; in assay [3], less than 30%; in assay [4] it was less than 30%; in assay [5], 30 to 50%. Also, the inhibition at 3.3 µM in the assay with HeLa (cervical cancer) fell in the range of 30 to 50%.
Turning to `CCCC1=C(CC(=O)O)c2cc(F)ccc2/C1=C\c1cccc(Oc2ccccc2)c1` [C22, (Z)-2-(5-Fluoro-1-(3-phenoxybenzylidene)-2-propyl-1H-inden-3-yl)acetic acid], the inhibition at 10 µM in assay [1] is more than 80%; in assay [2] it was not below 50%; with HepG2 (liver cancer), not below 50%; in the assay on SW480 (colon cancer), 30 to 50%; in assay [3], not below 50%; in assay [4], not below 50%. In addition, the inhibition at 10 µM (in assay [5]; in the assay with HeLa (cervical cancer)) was not below 50% each time. The inhibition at 3.3 µM is not below 50% in assay [2]; less than 30% in the assay on HepG2 (liver cancer); less than 30% in the assay with SW480 (colon cancer); 30 to 50% in assay [3]; less than 30% in assay [4]; not below 50% in assay [5]. Moreover, the inhibition at 3.3 µM in the assay with HeLa (cervical cancer) is less than 30%.
With `CC1=C(CC(=O)O)c2ccc(F)c(F)c2/C1=C\c1cccc(Oc2ccccc2)c1` [C23, (Z)-2-(6,7-Difluoro-2-methyl-1-(3-phenoxybenzylidene)-1H-inden-3-yl)acetic acid], the inhibition at 10 µM in assay [1] was less than 30%; in assay [2] it was not below 50%; with HepG2 (liver cancer) it was less than 30%; in the assay on SW480 (colon cancer), less than 30%; in assay [3], not below 50%; in assay [4] it was less than 30%. For the same molecule, the figures for the inhibition at 10 µM (in assay [5]; in the assay with HeLa (cervical cancer)) were less than 30% and not below 50%, respectively. In addition, the inhibition at 3.3 µM was not below 50% in assay [2]; less than 30% with HepG2 (liver cancer); less than 30% in the assay on SW480 (colon cancer); 30 to 50% in assay [3]; less than 30% in assay [4]; less than 30% in assay [5]. In addition, the inhibition at 3.3 µM in the assay on HeLa (cervical cancer) fell in the range of 30 to 50%.
Consider `C=CC1=C(CC(=O)O)c2ccccc2/C1=C\c1ccc(Oc2ccc(F)cc2)cc1` [C25, (Z)-2-(1-(4-(4-Fluorophenoxy)benzylidene)-2-vinyl-1H-inden-3-yl)acetic acid], for which the inhibition at 10 µM is less than 30% in assay [1]; not below 50% in assay [2]; less than 30% with HepG2 (liver cancer); 30 to 50% in the assay with SW480 (colon cancer); not below 50% in assay [3]; less than 30% in assay [4]. Moreover, the inhibition at 10 µM (in assay [5]; with HeLa (cervical cancer)) was 30 to 50% each time. Moreover, the inhibition at 3.3 µM in assay [2] was not below 50%; in the assay on HepG2 (liver cancer) it was less than 30%; in the assay on SW480 (colon cancer) it was 30 to 50%; in assay [3], not below 50%; in assay [4] it was less than 30%; in assay [5], less than 30%. Further, in the assay on HeLa (cervical cancer), the inhibition at 3.3 µM lay within 30 to 50%. Moreover, in assay [5] (Compound concentration: 30 μM, read-out: Antiproliferative activity in cancerous cells, A549), the inhibition at 30 µM is 30 to 50%.
